From patent US20080176952A1, “Management of Ophthalmologic Disorders, Including Macular Degeneration” (priority 2004, published 2008)

Tests used:
RPE65 = target: T1, RPE65 (Bos taurus, UniProt Q28175); assay: Fluorescence binding assay of retinoids and analogs to purified RPE65; design: species or system bovine; settings: antagonist of RPE65; read-out: KD
T1 construct: Frozen bovine eyecups devoid of retinas were purchased from W. L. Lawson Co; tissue W. L. Lawson Co; host or cells: bovine eyecups (retinal pigment epithelium)
Description: Purification of mRPE65, sRPE65 and rHRPE65: Purification was performed as described before (Ma et al., 2001). The purities of these proteins were verified by silver staining or Coomassie staining and Western blot (1:4000 primary antibody-1 h at room temperature and 1:4000 secondary antibody-0.5 h at room temperature).
(§1) Fluorescence binding assays: RPE65 in PBS, 1% CHAPS, pH 7.4 was used in the fluorometric titration studies. Protein concentrations were measured by a modified Lowry method (Lowry et al., 1951). All titrations were performed at 25° C. The samples in PBS buffer were excited at 280 nm and the fluorescence was scanned from 300 to 500 nm. Fluorescence measurements, using 450 μL quartz cuvettes with a 0.5 cm path length, were made at 25° C. on a Jobin Yvon Instruments, Fluoromax 2 employing the right-angle detection method.
(§2) The fluorescence of the protein solution was measured after equilibrating it at 25° C. for 10 min. The sample was then titrated with a solution of retinoid dissolved in dimethyl sulfoxide. In each titration, to a 250 μL solution of the protein an equal amount of retinoid, typically 0.2 μL. was added and thoroughly mixed before allowing it to equilibrate for 10 min prior to recording the fluorescence intensity. […] The binding constant (KD) was calculated from the fluorescence intensity by using the following equation (Gollapalli et al., 2003).
where P0=Total protein concentration,
n=number of independent binding sites, R0=Total retixioid concentration at each addition, KD=dissociation constant, Fmax=Fluorescence intensity at saturation, and F0=Initial fluorescence intensity.

A2E formation = assay: In vitro A2E formation in the presence of aromatic amine
Description: 100 mg (355 μmoles) of all-trans-retinal was dissolved in 3 mL followed by the addition of 9.5 μL of glacial acetic acid 9.5 μL of ethanolamine (155 μmoles). This solution was aliquoted into 300 μL fractions. 3-aminoethylbenzoate (15.5 μmoles) was added to the samples at 0, 2, 3.75, 14, 16.25, 18.0833 19.917 23.75 and 48 hrs. […] The solutions were shaken at room temperature for 48 hrs. The solutions were then kept at −80° C. and 15 μL was diluted to 250 μL (methanol). The solutions (15 μL) were then analyzed on a reverse phase (C18-5 μm-4.6 mm×150 mm) column on a linear gradient 85%-96% methanol/water and UV detector at 430 nm to determine the amount of A2E formation. The percent A2E formation was compared to A2E formation at 48 h in the absence of aromatic amine.

mouse RPE65 = assay: Constants of affinity (Kds) for mouse RPE65; format: binding; settings: read-out: Kd (constant of affinity) for mouse RPE65
Description: as §1, §2
The constants of affinity (Kds) of several compounds for mouse RPE65 were determined. […] Thus, the potency of binding is a function of the ester chain length, i.e., the longer the chain length, the stronger the affinity for RPE65 is and the stronger the antagonist is.

A2E accumulation = assay: In vivo A2E accumulation in abcr knockout mice; settings: for A2E accumulation / iso-A2E accumulation / total (A2E + iso-A2E) accumulation: 50 mg/kg once or twice a week, 2 to 2½ months; for reduction of A2E accumulation / reduction of iso-A2E accumulation / reduction of total A2E accumulation: versus no drug
Description: Effects on accumulation of A2E in abcr knockout mice by farnesyl decyl ketone and N-palmityl farnesimide were investigated. Mice were injected with 50 mg/kg drug in 25 microliters of DMSO or with only DMSO for the control group once or twice a week. After 2 to 2½ months, the mice were sacrificed, and A2E and iso-A2E were harvested and quantitated from 4 eyes for each drug or control.

T1 sequence (Q28175 whole entry): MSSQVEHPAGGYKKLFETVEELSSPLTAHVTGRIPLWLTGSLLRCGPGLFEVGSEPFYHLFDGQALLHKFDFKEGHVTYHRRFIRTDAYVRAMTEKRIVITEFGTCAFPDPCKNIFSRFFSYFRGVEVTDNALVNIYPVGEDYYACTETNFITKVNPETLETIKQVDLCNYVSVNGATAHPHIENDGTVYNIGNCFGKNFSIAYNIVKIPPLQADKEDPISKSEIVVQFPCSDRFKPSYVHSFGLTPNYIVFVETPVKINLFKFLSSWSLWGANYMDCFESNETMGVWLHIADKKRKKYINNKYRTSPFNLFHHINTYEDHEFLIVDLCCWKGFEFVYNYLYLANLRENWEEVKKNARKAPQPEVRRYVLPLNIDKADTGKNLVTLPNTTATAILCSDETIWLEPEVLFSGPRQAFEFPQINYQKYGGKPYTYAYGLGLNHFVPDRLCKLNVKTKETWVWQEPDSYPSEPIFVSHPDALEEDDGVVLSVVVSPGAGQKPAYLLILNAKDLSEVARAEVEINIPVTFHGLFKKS

Row | Molecule | Kd (RPE65) [nM] | other results
1 | CCCCCCCCCCCCCCCC(=O)CC/C=C(\C)CC/C=C(\C)CCC=C(C)C | 96 | 
2 | CCCCCCCCCC(=O)CC/C=C(\C)CC/C=C(\C)CCC=C(C)C | 56 | 
3 | CCCCCCCCCCCCCCCC(=O)NC/C=C(\C)CC/C=C(\C)CCC=C(C)C | 56 | 
4 | CCCCCCCCCC(=O)CC/C=C(C)/C=C/C=C(C)/C=C/C1=C(C)CCCC1(C)C | 173 | 
5 | CC(=O)CC/C=C(C)/C=C/C=C(C)/C=C/C1=C(C)CCCC1(C)C | 3790 | 
6 | CCOC(=O)c1cccc(N)c1 [3-aminoethylbenzoate, ethyl 3-aminobenzoate] |  | A2E formation % formation (48 Hrs = 100) (A2E formation; aromatic amine added at 0 hrs, read at 48 hrs): 3.98%; A2E formation % formation (48 Hrs = 100) (A2E formation; aromatic amine added at 2 hrs, read at 48 hrs): 8.67%; A2E formation % formation (48 Hrs = 100) (A2E formation; aromatic amine added at 3.75 hrs, read at 48 hrs): 7.71%; A2E formation % formation (48 Hrs = 100) (A2E formation; aromatic amine added at 14 hrs, read at 48 hrs): 19.73%; A2E formation % formation (48 Hrs = 100) (A2E formation; aromatic amine added at 16.25 hrs, read at 48 hrs): 19.25%; A2E formation % formation (48 Hrs = 100) (A2E formation; aromatic amine added at 18.0833 hrs, read at 48 hrs): 23.70%; A2E formation % formation (48 Hrs = 100) (A2E formation; aromatic amine added at 19.91667 hrs, read at 48 hrs): 27.65%; A2E formation % formation (48 Hrs = 100) (A2E formation; aromatic amine added at 23.75 hrs, read at 48 hrs): 22.44%; A2E formation % formation (48 Hrs = 100) (A2E formation; aromatic amine added at 48 hrs, reference = 100): 100.00%
7 | CCCCCCCCCCCCCCCC(=O)NC/C=C(C)/C=C/C=C(C)/C=C/C1=C(C)CCCC1(C)C [4e] |  | Kd (mouse RPE65): 40 nM
8 | CCCCCCCCCCCCCCCC(=O)CC/C=C(C)/C=C/C=C(C)/C=C/C1=C(C)CCCC1(C)C [4f] | 64 | Kd (mouse RPE65): 64 nM
9 | CC1=C(/C=C/C(C)=C/C=C/C(C)=C/C(=O)N(C)C)C(C)(C)CCC1 [N,N-dimethyl retinimide] | 3580 | 
10 | CCCCCCCCCCCCCCCCNC(=O)C/C=C(\C)CC/C=C(\C)CCC=C(C)C [N-palmityl farnesimide] |  | A2E accumulation (A2E accumulation): 5.38 pmoles/eye; iso-A2E accumulation (A2E accumulation): 1.70 pmoles/eye; total (A2E + iso-A2E) accumulation (A2E accumulation): 7.09 pmoles/eye; reduction of A2E accumulation (A2E accumulation): over 50%; reduction of iso-A2E accumulation (A2E accumulation): about 33%; reduction of total A2E accumulation (A2E accumulation): about 47%
11 | CCCCCCCCCCCCCCCCNC(=O)/C=C(C)/C=C/C=C(C)/C=C/C1=C(C)CCCC1(C)C [N-palmityl retinimide] | 40 | 
12 | CC1=C(/C=C/C(C)=C/C=C/C(C)=C/C(=O)NC(C)(C)C)C(C)(C)CCC1 [N-tert-butyl retinimide] | 4320 | 
13 | CCCCCCCCCCC(=O)CC=C(C)CCC=C(C)CCC=C(C)C [farnesyl decyl ketone] |  | A2E accumulation (A2E accumulation): 2.00 pmoles/eye; iso-A2E accumulation (A2E accumulation): 0.66 pmoles/eye; total (A2E + iso-A2E) accumulation (A2E accumulation): 2.66 pmoles/eye; reduction of A2E accumulation (A2E accumulation): over 80%; reduction of iso-A2E accumulation (A2E accumulation): about 74%; reduction of total A2E accumulation (A2E accumulation): about 80%

Second part, led by results:

Row | Kd (RPE65) [nM] | Molecule | other results
14 | 63 | CCCCCCCCCCCCCCCC(=O)OC/C=C(\C)CC/C=C(\C)CCC=C(C)C [farnesyl palmitate] | 
15 | 60 | CCCCCCCCCCCCCCCCOC/C=C(\C)CC/C=C(\C)CCC=C(C)C [farnesyl palmityl ether] | 
16 | 301 | CCCCCCCCCCCCCCCC(=O)OC/C=C(\C)CCC=C(C)C [geranyl palmitate] | 
17 | 416 | CCCCCCCCCCCCCCCCOC/C=C(\C)CCC=C(C)C [geranyl palmityl ether] | 
18 | 213 | CCCCCCCCCCCCCCCC(=O)OC/C=C(\C)CC/C=C(\C)CC/C=C(\C)CCC=C(C)C [geranylgeranyl palmitate] | 
19 | 195 | CCCCCCCCCCCCCCCCOC/C=C(\C)CC/C=C(\C)CC/C=C(\C)CCC=C(C)C [geranylgeranyl palmityl ether] | 
20 | 151 | CCCCCCOC/C=C(C)/C=C/C=C(C)/C=C/C1=C(C)CCCC1(C)C [hexyl retinyl ether] | 
21 | 24 | COC/C=C(C)/C=C/C=C(C)/C=C/C1=C(C)CCCC1(C)C [methyl retinyl ether] | 
22 | 3790 | CC(=O)/C=C(C)/C=C/C=C(C)/C=C/C1=C(C)CCCC1(C)C [methyl retinyl ketone] | 
23 | 170 | CCCCCCCCCCCCCCCCC(O)/C=C(C)/C=C/C=C(C)/C=C/C1=C(C)CCCC1(C)C (stereo not shown) [palmityl retinyl alcohol] | 
24 | 25 | CCCCCCCCCCCCCCCCOC/C=C(C)/C=C/C=C(C)/C=C/C1=C(C)CCCC1(C)C [palmityl retinyl ether] | Kd (mouse RPE65): 21 nM
25 | 64 | CCCCCCCCCCCCCCCCC(=O)/C=C(C)/C=C/C=C(C)/C=C/C1=C(C)CCCC1(C)C [palmityl retinyl ketone] | 
26 | 486 | COCCOCCOC/C=C(C)/C=C/C=C(C)/C=C/C1=C(C)CCCC1(C)C [retinyl [2-(2′-methoxy)ethoxy]ethyl ether] | 
27 | 1300 | CC(=O)OC/C=C(C)/C=C/C=C(C)/C=C/C1=C(C)CCCC1(C)C [retinyl acetate] | Kd (mouse RPE65): 1300 nM
28 | 153 | CCCCCCCCCCCCCCCC(=O)OC/C=C(C)/C=C/C1=C(C)CCCC1(C)C [β-ionoacetyl palmitate] | 
29 | 156 | CCCCCCCCCCCCCCCCOC/C=C(C)/C=C/C1=C(C)CCCC1(C)C [β-ionoacetyl palmityl ether] | 
30 | 235 | retinyl hexanoate | Kd (mouse RPE65): 235 nM
